In patent publication US20230102554A1 (GB002, INC., priority 2019, published 2023) one finds IC50 data, which are given here for eleven compounds.

Experiment [1] deals with T1, Human PDGFRβ, cytoplasmic domain (GST-PDGFRβ) (Homo sapiens, UniProt P09619).
T1 construct: made in house
As to the kind of experiment: Human PDGFRβ biochemical inhibition assay (off-chip Mobility Shift Assay). Put shortly: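 GST-tagged cytoplasmic domain (aa 557-1106) from baculovirus was incubated 1 h at room temperature with compound, CSKtide, ATP at Km and Mg²⁺ in HEPES buffer, pH 7.5. Phosphorylated and unphosphorylated peptide were separated by off-chip mobility shift, and the product ratio P/(P+S) gave percent inhibition.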

Experiment [2] addresses T2, Human PDGFRα, cytoplasmic domain (GST-PDGFRα) (Homo sapiens, UniProt P16234).
T2 construct: made in house
The experiment is described as follows: Human PDGFRα biochemical inhibition assay (off-chip Mobility Shift Assay).

Where only a bound is given, the exact number is not on record here.

T2 sequence (P16234 550-1089 T674I): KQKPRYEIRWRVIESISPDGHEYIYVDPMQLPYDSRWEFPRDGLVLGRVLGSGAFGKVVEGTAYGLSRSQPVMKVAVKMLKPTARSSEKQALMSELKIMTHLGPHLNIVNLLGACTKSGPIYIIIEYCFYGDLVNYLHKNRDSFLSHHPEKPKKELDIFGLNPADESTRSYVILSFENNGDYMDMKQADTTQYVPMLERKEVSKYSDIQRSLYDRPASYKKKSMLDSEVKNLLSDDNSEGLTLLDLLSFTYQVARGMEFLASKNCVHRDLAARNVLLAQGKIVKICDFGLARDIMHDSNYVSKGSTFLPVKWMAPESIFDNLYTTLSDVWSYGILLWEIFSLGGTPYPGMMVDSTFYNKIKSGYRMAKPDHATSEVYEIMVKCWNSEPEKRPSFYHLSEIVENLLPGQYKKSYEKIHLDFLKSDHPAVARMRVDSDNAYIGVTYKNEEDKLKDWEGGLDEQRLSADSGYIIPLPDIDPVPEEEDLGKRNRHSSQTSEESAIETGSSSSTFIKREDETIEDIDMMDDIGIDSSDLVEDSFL
T1 sequence (P09619 with tags, fused parts or gaps): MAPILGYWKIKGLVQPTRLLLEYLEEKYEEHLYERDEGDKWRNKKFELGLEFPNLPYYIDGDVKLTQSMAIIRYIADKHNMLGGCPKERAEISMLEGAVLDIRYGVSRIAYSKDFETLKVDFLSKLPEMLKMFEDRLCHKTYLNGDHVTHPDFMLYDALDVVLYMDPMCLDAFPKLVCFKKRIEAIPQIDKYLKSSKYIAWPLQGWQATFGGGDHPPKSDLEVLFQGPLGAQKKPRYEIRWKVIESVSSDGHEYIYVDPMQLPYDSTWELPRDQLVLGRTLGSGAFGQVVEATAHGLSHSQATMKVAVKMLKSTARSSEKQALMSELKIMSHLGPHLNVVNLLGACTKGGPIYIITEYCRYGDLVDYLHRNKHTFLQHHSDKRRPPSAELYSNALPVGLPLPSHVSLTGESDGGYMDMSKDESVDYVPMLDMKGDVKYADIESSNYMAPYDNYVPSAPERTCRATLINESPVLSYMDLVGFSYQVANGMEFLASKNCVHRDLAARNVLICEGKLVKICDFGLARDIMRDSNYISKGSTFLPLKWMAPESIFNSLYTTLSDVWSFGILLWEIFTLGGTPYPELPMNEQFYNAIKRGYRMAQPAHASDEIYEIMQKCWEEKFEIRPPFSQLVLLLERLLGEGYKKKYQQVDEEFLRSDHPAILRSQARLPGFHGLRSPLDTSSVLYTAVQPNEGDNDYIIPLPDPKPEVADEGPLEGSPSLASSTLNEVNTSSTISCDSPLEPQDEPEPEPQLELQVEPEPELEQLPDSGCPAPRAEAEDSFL

On to `CCn1cc2ncc(N[C@@H](C)c3cccc(NC(=O)c4ccc(N5CCN(C)CC5)c(F)c4)c3)nc2n1` [Compound 367, (S)-N-(3-(1-((2-ethyl-2H-pyrazolo[3,4-b]pyrazin-6-yl)amino)ethyl)phenyl)-3-fluoro-4-(4-methylpiperazin-1-yl) benzamide], for which the IC50 in experiment [1] is at least 1000 nM; in experiment [2], 300 to 1000 nM.

In the case of `CCn1cc2ncc(N[C@@H](C)c3cccc(NC(=O)Cc4ccc(C)cn4)c3)nc2n1` [Compound 25, (S)—N-(3-(1-((2-ethyl-2H-pyrazolo[3,4-b]pyrazin-6-yl)amino)ethyl)phenyl)-2-(5-methylpyridin-2-yl)acetamide], the IC50 in experiment [1] was at least 1000 nM; in experiment [2] it was under 300 nM.

As to `Cc1cc2ncc(N[C@@H](C)c3cc(NC(=O)c4ccc(C5CC5)nc4)ccc3F)nc2s1` [Compound 612, (S)-6-cyclopropyl-N-(4-fluoro-3-(1-((6-methylthieno[2,3-b]pyrazin-3-yl)amino)ethyl)phenyl)nicotinamide], the IC50 in experiment [1] and in experiment [2] was under 300 nM in each case.

For `CCc1c[nH]c2ncc(N[C@@H](C)c3cccc(NC(=O)c4cncc(C)c4)c3)nc12` [Compound 564, (S)-N-(3-(1-((7-ethyl-5H-pyrrolo[2,3-b]pyrazin-2-yl)amino)ethyl)phenyl)-5-methylnicotinamide], the IC50 in experiment [1] and in experiment [2] was under 300 nM each time.

`COc1ccc(C(=O)Nc2cccc([C@H](C)Nc3cnc4cnn(C)c4n3)c2)cc1F` [Compound 189, (S)-3-fluoro-4-methoxy-N-(3-(1-((1-methyl-1H-pyrazolo[3,4-b]pyrazin-6-yl)amino)ethyl)phenyl)benzamide]: the IC50 in experiment [1] and in experiment [2] was under 300 nM each time.

For `C[C@H](Nc1cnc2cnn(C)c2n1)c1cccc(NC(=O)c2cncc(C(C)(C)O)c2)c1` [Compound 107, (S)-5-(2-hydroxypropan-2-yl)-N-(3-(1-((1-methyl-1H-pyrazolo[3,4-b]pyrazin-6-yl)amino)ethyl)phenyl) nicotinamide], the IC50 in experiment [1] and in experiment [2] was under 300 nM in each case.

With `CCn1cc2ncc(N[C@@H](C)c3cccc(NC(=O)Cc4cc(C)ccn4)c3)nc2n1` [Compound 678, (S)-N-(3-(1-((2-ethyl-2H-pyrazolo[3,4-b]pyrazin-6-yl)amino)ethyl)phenyl)-2-(4-methylpyridin-2-yl)acetamide], the values for the IC50 in experiment [1] and in experiment [2] were at least 1000 nM and under 300 nM, respectively.

In the case of `CSc1ncc(C(=O)Nc2cccc([C@H](C)Nc3cnc4cnn(C)c4n3)c2)cc1C` [Compound 223, (S)-5-methyl-N-(3-(1-((1-methyl-1H-pyrazolo[3,4-b]pyrazin-6-yl)amino)ethyl)phenyl)-6-(methylthio)nicotinamide], the IC50 in experiment [1] and in experiment [2] was under 300 nM in each case.

Consider `C[C@H](Nc1cnc2cn[nH]c2n1)c1cccc(NC(=O)c2cncc(C3CCC3)c2)c1` [Compound 96, (S)-N-(3-(1-((1H-pyrazolo[3,4-b]pyrazin-6-yl)amino)ethyl)phenyl)-5-cyclobutylnicotinamide], for which the 50% inhibitory concentration (IC50) in experiment [1] and in experiment [2] was under 300 nM throughout.

In the case of `Cc1c[nH]c2ncc(N[C@@H](C)c3cccc(NC(=O)c4cncc(Cl)c4)c3)nc12` [Compound 565, (S)-5-chloro-N-(3-(1-((7-methyl-5H-pyrrolo[2,3-b]pyrazin-2-yl)amino)ethyl)phenyl)nicotinamide], the IC50 in experiment [1] and in experiment [2] was under 300 nM each time.

`CCn1cc2ncc(N[C@@H](C)c3cccc(NC(=O)c4ccc(OC)c(F)c4)c3)nc2n1` [Compound 359, (S)-N-(3-(1-((2-ethyl-2H-pyrazolo[3,4-b]pyrazin-6-yl)amino)ethyl)phenyl)-3-fluoro-4-methoxybenzamide]: the IC50 in experiment [1] and in experiment [2] was under 300 nM throughout.

Broadly, the IC50 is the concentration that inhibits the measured activity by half.
